Our source for the overall survival and tumour growth values is US20250295656A1, “COMBINATION OF LURBINECTEDIN AND IMMUNE CHECKPOINT INHIBITORS” (priority 2020, published 2025).

In this assay the test system is MPA/DMBA-induced tumours. Put plainly: MPA/DMBA-induced breast cancer model. It counts as in vivo, C57BL/6 mice. The settings on record: palpable MPA/DMBA-induced tumours; systemic injection. The protocol: Medroxyprogesterone acetate (MPA) pellets (50 mg, 90-day release) were implanted subcutaneously into the interscapular area of immunocompetent C57BL/6 mice. Then the animals received 1 mg dimethylbenzantracene (DMBA) administered by oral gavage 6× during 7 weeks. When spontaneous tumours became palpable mice were randomly assigned to receive 0.14 mg/Kg lurbinectedin (Lurbi) alone or in combination with double immune checkpoint blockade with monoclonal antibodies targeting CTLA-4 and PD-1 at day 6, 9 and 12 post treatment (a). The tumour area and overall survival were measured regularly until ethical endpoints were reached (b,c,d). Data were analyzed with TumGrowth (https://github.com/kroemerlab). […]
Six- to eight-week-old female wild-type C57BL/6 and nu/nu mice were obtained from Envigo France (Huntingdon, UK) and were kept in the animal facility at the Gustave Roussy Campus Cancer in a specific pathogen-free and temperature-controlled environment with 12 h day, 12 h night cycles and received food and water ad libitum. […] When tumours became palpable, 0.18 mg/Kg lurbinectedin was injected sequentially once a week intravenously into the tail vein and animal well-being and tumour growth were monitored. […] Animals were monitored and tumour growth documented regularly until end-points were reached. […]

Consider `COc1ccc2[nH]c3c(c2c1)CCN[C@]31CS[C@@H]2c3c(OC(C)=O)c(C)c4c(c3[C@H](COC1=O)N1[C@@H]2[C@H]2c3c(cc(C)c(OC)c3O)C[C@@H]([C@@H]1O)N2C)OCO4` [lurbinectedin], for which the overall survival result is on record as “increased” and the tumour growth result was “significantly reduced”.
